Structures are written as SMILES.

The assay has as its target T1, microsomal form of rat liver HMG-CoA reductase (Rattus norvegicus, UniProt P51639).
T1 construct: from tissue; host or cells: rat liver microsomes
T1 sequence (P51639 1-887): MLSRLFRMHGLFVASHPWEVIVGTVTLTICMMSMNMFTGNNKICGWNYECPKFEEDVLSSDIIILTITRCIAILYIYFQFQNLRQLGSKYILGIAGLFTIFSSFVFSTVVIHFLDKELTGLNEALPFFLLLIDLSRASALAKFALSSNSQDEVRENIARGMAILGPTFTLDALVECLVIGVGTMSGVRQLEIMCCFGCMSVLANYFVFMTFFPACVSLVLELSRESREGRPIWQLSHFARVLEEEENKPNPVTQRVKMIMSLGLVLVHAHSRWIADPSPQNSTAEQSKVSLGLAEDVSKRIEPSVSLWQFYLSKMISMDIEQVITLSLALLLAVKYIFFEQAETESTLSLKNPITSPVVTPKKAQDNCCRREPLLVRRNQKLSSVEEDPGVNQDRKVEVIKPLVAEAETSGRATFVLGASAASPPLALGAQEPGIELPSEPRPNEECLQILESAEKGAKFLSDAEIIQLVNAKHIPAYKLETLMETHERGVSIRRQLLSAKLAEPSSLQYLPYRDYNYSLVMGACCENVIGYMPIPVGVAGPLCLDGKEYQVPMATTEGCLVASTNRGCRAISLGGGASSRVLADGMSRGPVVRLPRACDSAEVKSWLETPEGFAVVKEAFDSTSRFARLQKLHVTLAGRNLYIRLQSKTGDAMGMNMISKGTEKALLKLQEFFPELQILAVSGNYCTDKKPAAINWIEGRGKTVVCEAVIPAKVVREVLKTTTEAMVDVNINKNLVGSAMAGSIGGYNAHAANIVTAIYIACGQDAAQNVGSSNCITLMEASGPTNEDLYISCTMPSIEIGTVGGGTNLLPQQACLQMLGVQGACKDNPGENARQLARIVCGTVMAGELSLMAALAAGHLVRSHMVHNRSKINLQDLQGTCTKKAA
Briefly: In Vitro Inhibition of Microsomal HMG-CoA Reductase. It counts as biochemical. The conditions noted are these: 50 percent inhibitory concentration, rat liver microsomes, [3-14C]-HMG-CoA 0.33 mM, NADPH 3.0 mM, pH 7.2, at least 4 dilutions in duplicate. As for the experimental part:
The intact, fully activated microsomal form of rat liver HMG-CoA reductase (subunit MW ca 100,000 daltons) was prepared as described by Parker, et al., Biochem. Biophys. Res. Commun., 125, 629-635 (1984), and used as the source of enzyme for assays. HMG-CoA reductase activity was determined essentially by the method of Shapiro, et al., Biochem. Biophys. Acta., 370, 369-377 (1974), with modifications as described by Ingebritsen and Gibson, Meth. Enzymol, 71, 486-497 (1981) with the exception that the internal standard ^3 H-mevalonolactone is added after termination of the assay. […]
To measure reductase inhibition, test compounds dissolved in water or dimethylsulfoxide and diluted in buffer A (50 mM imidazole-HCl, 250 mM NaCl, 1 mM EDTA, 1 mM EGTA, 5 mM DTT, 20 μM leupeptin, pH=7.2) were incubated with aliquots of microsomes (80-160 μg protein in buffer A) followed by addition of d,1-[3-^14 C]-HMG-CoA (0.33 mM, 2.0 dpm/picomole) and NADPH (3.0 mM). The 50 percent inhibitory concentration (IC50) for each compound in Table 1 was calculated from the linear regression line of the percent decrease (from control) in enzyme activity vs. log concentration of inhibitor, determined using at least 4 dilutions of each test compound assayed in duplicate.

`N#CC(/C=C/[C@H]1C[C@H](O)CC(=O)O1)=C(c1ccc(F)cc1)c1ccc(F)cc1` (relative stereo) [Example 8, Trans-(E)-2-[bis(4-fluorophenyl)methylene]-4-(tetrahydro-4-hydroxy-6-oxo-2H-pyran-2-yl)-3-butenenitrile]: the IC50 amounted to 26 µM.
Under `N#CC(/C=C/[C@@H](O)C[C@@H](O)CC(=O)O)=C(c1ccc(F)cc1)c1ccc(F)cc1` (relative stereo) [Example 7, Sodium (±)-(E)-erythro-8-cyano-9,9-bis(4-fluorophenyl)-3,5-dihydroxy-6,8-nonadienoate] stands 8 µM.

Values taken from patent publication US5028730A, “Antihypercholesterolemic nitrile compounds” (Bristol-Myers Company, priority 1990, dated 1991).
